Source: patent publication US20110039721A1, “METHOD FOR PREDICTION ABOUT CARCINOGENICITY OF SUBSTANCE IN RODENT” (Chemicals Evaluation and Research Institute, priority 2007, published 2011)

Experiments:
[1] = classification of the substance (M+/M−); cited from earlier work
rodent = details: classification of the substance (C+/C−); cited from earlier work
[2] = tested on: mRNA expressed from the genes (A) to (D) in rat liver; test: Behavior of genes (mRNA expression level, oligo-DNA microarray) in rat liver after 28-day oral administration; format: in vivo; details: for Behavior of gene caused by administration of chemical substance, Gene No. 4846 / Behavior of gene caused by administration of chemical substance, Gene No. 2026 / Behavior of gene caused by administration of chemical substance, Gene No. 4218 / Behavior of gene caused by administration of chemical substance, Gene No. 6182 / Behavior of gene caused by administration of chemical substance, Gene No. 5600: gene group (A); for Behavior of gene caused by administration of chemical substance, Gene No. 4846: Unigene No. Rn.144554; for Behavior of gene caused by administration of chemical substance, Gene No. 2026 / Behavior of gene caused by administration of chemical substance, Gene No. 4218: Unigene No. Rn.167075; for Behavior of gene caused by administration of chemical substance, Gene No. 6182: Unigene No. Rn.5834; for Behavior of gene caused by administration of chemical substance, Gene No. 5600: Unigene No. Rn.9836; for Behavior of gene caused by administration of chemical substance, Gene No. 1494 / Behavior of gene caused by administration of chemical substance, Gene No. 2045 / Behavior of gene caused by administration of chemical substance, Gene No. 2203: gene group (B); for Behavior of gene caused by administration of chemical substance, Gene No. 1494: Unigene No. Rn.1430; for Behavior of gene caused by administration of chemical substance, Gene No. 2045: Unigene No. Rn.19329; for Behavior of gene caused by administration of chemical substance, Gene No. 2203: Unigene No. Rn.21240; for Behavior of gene caused by administration of chemical substance, Gene No. 533 / Behavior of gene caused by administration of chemical substance, Gene No. 725 / Behavior of gene caused by administration of chemical substance, Gene No. 1163 / Behavior of gene caused by administration of chemical substance, Gene No. 4973 / Behavior of gene caused by administration of chemical substance, Gene No. 4095 / Behavior of gene caused by administration of chemical substance, Gene No. 1334 / Behavior of gene caused by administration of chemical substance, Gene No. 6620 / Behavior of gene caused by administration of chemical substance, Gene No. 6303 / Behavior of gene caused by administration of chemical substance, Gene No. 5878 / Behavior of gene caused by administration of chemical substance, Gene No. 1131 / Behavior of gene caused by administration of chemical substance, Gene No. 1562 / Behavior of gene caused by administration of chemical substance, Gene No. 1741 / Behavior of gene caused by administration of chemical substance, Gene No. 893 / Behavior of gene caused by administration of chemical substance, Gene No. 6026 / Behavior of gene caused by administration of chemical substance, Gene No. 154 / Behavior of gene caused by administration of chemical substance, Gene No. 1993 / Behavior of gene caused by administration of chemical substance, Gene No. 813 / Behavior of gene caused by administration of chemical substance, Gene No. 2494 / Behavior of gene caused by administration of chemical substance, Gene No. 2546 / Behavior of gene caused by administration of chemical substance, Gene No. 3776 / Behavior of gene caused by administration of chemical substance, Gene No. 3929 / Behavior of gene caused by administration of chemical substance, Gene No. 1119 / Behavior of gene caused by administration of chemical substance, Gene No. 6742 / Behavior of gene caused by administration of chemical substance, Gene No. 5634: gene group (C); for Behavior of gene caused by administration of chemical substance, Gene No. 533: Unigene No. Rn.106184; for Behavior of gene caused by administration of chemical substance, Gene No. 725: Unigene No. Rn.108075; for Behavior of gene caused by administration of chemical substance, Gene No. 1163: Unigene No. Rn.11766; for Behavior of gene caused by administration of chemical substance, Gene No. 4973: Unigene No. Rn.118529; for Behavior of gene caused by administration of chemical substance, Gene No. 4095: Unigene No. Rn.119024; for Behavior of gene caused by administration of chemical substance, Gene No. 1334 / Behavior of gene caused by administration of chemical substance, Gene No. 6620: Unigene No. Rn.120914; for Behavior of gene caused by administration of chemical substance, Gene No. 6303: Unigene No. Rn.123063; for Behavior of gene caused by administration of chemical substance, Gene No. 5878: Unigene No. Rn.143213; for Behavior of gene caused by administration of chemical substance, Gene No. 1131: Unigene No. Rn.144946; for Behavior of gene caused by administration of chemical substance, Gene No. 1562: Unigene No. Rn.14744; for Behavior of gene caused by administration of chemical substance, Gene No. 1741: Unigene No. Rn.1647; for Behavior of gene caused by administration of chemical substance, Gene No. 893: Unigene No. Rn.164817; for Behavior of gene caused by administration of chemical substance, Gene No. 6026: Unigene No. Rn.167685; for Behavior of gene caused by administration of chemical substance, Gene No. 154: Unigene No. Rn.185941; for Behavior of gene caused by administration of chemical substance, Gene No. 1993: Unigene No. Rn.18728; for Behavior of gene caused by administration of chemical substance, Gene No. 813: Unigene No. Rn.201760; for Behavior of gene caused by administration of chemical substance, Gene No. 2494: Unigene No. Rn.23969; for Behavior of gene caused by administration of chemical substance, Gene No. 2546: Unigene No. Rn.24561; for Behavior of gene caused by administration of chemical substance, Gene No. 3776: Unigene No. Rn.43232; for Behavior of gene caused by administration of chemical substance, Gene No. 3929: Unigene No. Rn.4620; for Behavior of gene caused by administration of chemical substance, Gene No. 1119: Unigene No. Rn.9757; for Behavior of gene caused by administration of chemical substance, Gene No. 6742: Unigene No. Rn.9779; for Behavior of gene caused by administration of chemical substance, Gene No. 5634: Unigene No. Rn.9862; for Behavior of gene caused by administration of chemical substance, Gene No. 5726: gene group (D), Unigene No. Rn.9939
In short: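 Groups of four male F344 SPF rats aged 5 weeks are gavaged once a day for 28 days with test chemical in solvent or with solvent alone at equal volume. Total RNA comes from liver taken on day 28. Fold change of 1.5 or 1/1.5 versus control, directionally consistent, defines significance.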

liver = details: classification of the substance (Cr+/Cr−); cited from earlier work

SMILES | Mutagenicity by Ames test [1] | Carcinogenicity (rodent) | Behavior of gene caused by administration of chemical substance, Gene No. 4846 [2] | Behavior of gene caused by administration of chemical substance, Gene No. 2026 [2] | Behavior of gene caused by administration of chemical substance, Gene No. 4218 [2] | Behavior of gene caused by administration of chemical substance, Gene No. 6182 [2] | Behavior of gene caused by administration of chemical substance, Gene No. 5600 [2] | Behavior of gene caused by administration of chemical substance, Gene No. 1494 [2] | Behavior of gene caused by administration of chemical substance, Gene No. 2045 [2] | Behavior of gene caused by administration of chemical substance, Gene No. 2203 [2] | Behavior of gene caused by administration of chemical substance, Gene No. 533 [2] | Behavior of gene caused by administration of chemical substance, Gene No. 725 [2] | Behavior of gene caused by administration of chemical substance, Gene No. 1163 [2] | Behavior of gene caused by administration of chemical substance, Gene No. 4973 [2] | Behavior of gene caused by administration of chemical substance, Gene No. 4095 [2] | Behavior of gene caused by administration of chemical substance, Gene No. 1334 [2] | Behavior of gene caused by administration of chemical substance, Gene No. 6620 [2] | Behavior of gene caused by administration of chemical substance, Gene No. 6303 [2] | Behavior of gene caused by administration of chemical substance, Gene No. 5878 [2] | Behavior of gene caused by administration of chemical substance, Gene No. 1131 [2] | further results
ClC(Cl)(Cl)Cl [TS003, Carbon tetrachloride] | M− | C+ | + | + | + | + | + | + | + | + | + | − | + | + | − | − | − | − | − | − | Behavior of gene caused by administration of chemical substance, Gene No. 1562 [2]: −; Behavior of gene caused by administration of chemical substance, Gene No. 1741 [2]: +; Behavior of gene caused by administration of chemical substance, Gene No. 893 [2]: −; Behavior of gene caused by administration of chemical substance, Gene No. 6026 [2]: −; Behavior of gene caused by administration of chemical substance, Gene No. 154 [2]: +; Behavior of gene caused by administration of chemical substance, Gene No. 1993 [2]: −; Behavior of gene caused by administration of chemical substance, Gene No. 813 [2]: −; Behavior of gene caused by administration of chemical substance, Gene No. 2494 [2]: −; Behavior of gene caused by administration of chemical substance, Gene No. 2546 [2]: −; Behavior of gene caused by administration of chemical substance, Gene No. 3776 [2]: −; Behavior of gene caused by administration of chemical substance, Gene No. 3929 [2]: −; Behavior of gene caused by administration of chemical substance, Gene No. 1119 [2]: −; Behavior of gene caused by administration of chemical substance, Gene No. 6742 [2]: −; Behavior of gene caused by administration of chemical substance, Gene No. 5634 [2]: −; Behavior of gene caused by administration of chemical substance, Gene No. 5726 [2]: −; Liver carcinogenicity (liver): Cr+
OC[C@@H](O)[C@@H](O)[C@H](O)[C@H](O)CO [TS009, D-Mannitol] | M− | C− | − | − | − | − | − | − | − | − | − | − | − | − | − | − | − | − | − | − | Behavior of gene caused by administration of chemical substance, Gene No. 1562 [2]: −; Behavior of gene caused by administration of chemical substance, Gene No. 1741 [2]: −; Behavior of gene caused by administration of chemical substance, Gene No. 893 [2]: −; Behavior of gene caused by administration of chemical substance, Gene No. 6026 [2]: −; Behavior of gene caused by administration of chemical substance, Gene No. 154 [2]: −; Behavior of gene caused by administration of chemical substance, Gene No. 1993 [2]: −; Behavior of gene caused by administration of chemical substance, Gene No. 813 [2]: −; Behavior of gene caused by administration of chemical substance, Gene No. 2494 [2]: −; Behavior of gene caused by administration of chemical substance, Gene No. 2546 [2]: −; Behavior of gene caused by administration of chemical substance, Gene No. 3776 [2]: −; Behavior of gene caused by administration of chemical substance, Gene No. 3929 [2]: −; Behavior of gene caused by administration of chemical substance, Gene No. 1119 [2]: −; Behavior of gene caused by administration of chemical substance, Gene No. 6742 [2]: −; Behavior of gene caused by administration of chemical substance, Gene No. 5634 [2]: −; Behavior of gene caused by administration of chemical substance, Gene No. 5726 [2]: −; Liver carcinogenicity (liver): Cr−
Clc1ccc(C(c2ccc(Cl)cc2)C(Cl)(Cl)Cl)cc1 [TS016, Dichloro-diphenyl-trichloroethane] | M− | C+ | − | − | − | + | − | + | + | + | + | − | − | − | + | − | − | − | − | − | Behavior of gene caused by administration of chemical substance, Gene No. 1562 [2]: −; Behavior of gene caused by administration of chemical substance, Gene No. 1741 [2]: +; Behavior of gene caused by administration of chemical substance, Gene No. 893 [2]: −; Behavior of gene caused by administration of chemical substance, Gene No. 6026 [2]: −; Behavior of gene caused by administration of chemical substance, Gene No. 154 [2]: −; Behavior of gene caused by administration of chemical substance, Gene No. 1993 [2]: −; Behavior of gene caused by administration of chemical substance, Gene No. 813 [2]: −; Behavior of gene caused by administration of chemical substance, Gene No. 2494 [2]: +; Behavior of gene caused by administration of chemical substance, Gene No. 2546 [2]: −; Behavior of gene caused by administration of chemical substance, Gene No. 3776 [2]: −; Behavior of gene caused by administration of chemical substance, Gene No. 3929 [2]: −; Behavior of gene caused by administration of chemical substance, Gene No. 1119 [2]: −; Behavior of gene caused by administration of chemical substance, Gene No. 6742 [2]: +; Behavior of gene caused by administration of chemical substance, Gene No. 5634 [2]: +; Behavior of gene caused by administration of chemical substance, Gene No. 5726 [2]: −; Liver carcinogenicity (liver): Cr+
